Experimental data as given in ChEMBL document CHEMBL5506068 (J Med Chem, 2024).
Activity calls are given as the source filed them. The rule behind the calls is not given here.

Assays:
[1] = target: Kappa-type opioid receptor (Mus musculus, UniProt P33534); assay: Displacement of [3H]diprenorphine from mouse KOR expressed in CHO cells assessed as dissociation constant incubated for […] by radioligand binding assay; assay type: cell-based
[2] = target: Mu-type opioid receptor (Mus musculus, UniProt P42866); assay: Displacement of [3H]Naloxone from mouse MOR expressed in CHO cells assessed as dissociation constant incubated for […] by radioligand binding assay; assay type: cell-based
[3] = target: T1, Delta-type opioid receptor (Homo sapiens, UniProt P41143); assay: Displacement of [3H]diprenorphine from human DOR expressed in CHO cells assessed as dissociation constant incubated for […] by radioligand binding assay; assay type: cell-based
[4] = test system: Mus musculus; assay: Antinociception activity in male Swiss Webster mouse model assessed as increase in maximum possible effect at 10 mg/kg, sc measured after 20 mins by warm-water tail immersion assay relative to control; assay type: functional
[5] = target: T1, Delta-type opioid receptor; assay: Agonist activity at human DOR expressed in CHO cells increase in [35S]GTPgammaS binding measured after […] by scintillation counter analysis relative to SNC80; assay type: functional, cell-based; settings: filed as agonist
[6] = test system: Mus musculus; assay: Antinociception activity in male Swiss Webster mouse model assessed as increase in maximum possible effect at 0.05 mg/kg, sc measured after 30 to 60 mins post injection by warm-water tail immersion assay; assay type: functional, organism-based; settings: time 30-60 min
[7] = test system: Mus musculus; assay: Antinociception activity in male Swiss Webster mouse model assessed as increase in maximum possible effect at 0.05 mg/kg, sc measured after 3 to 5 hrs post injection by warm-water tail immersion assay; assay type: functional, organism-based; settings: time 3-5 hrs
[8] = test system: Mus musculus; assay: Antinociception activity in male Swiss Webster mouse model assessed as increase in maximum possible effect at 10 mg/kg, sc administered as single dose measured after 20 mins in presence of morphine by warm-water tail immersion assay relative to control; assay type: functional
[9] = species on record: Mus musculus; assay: Selectivity ratio of Kd for mouse MOR to Kd for mouse KOR
[10] = test system: Mus musculus; assay: Antinociception activity in male Swiss Webster mouse model assessed as increase in maximum possible effect at 0.1 mg/kg, sc measured after 30 to 180 mins post injection by warm-water tail immersion assay; assay type: functional, organism-based; settings: time 30-180 min
[11] = Toxicity in Swiss Webster mouse assessed as reduction in sedative effect at 0.1 to 0.5 mg/kg,sc; assay type: organism-based; settings: in vivo, dose 0.1-0.5 mg/kg
[12] = Toxicity in Swiss Webster mouse assessed as effect on locomotion at 0.1 to 0.5 mg/kg,sc measured after 30 mins; assay type: organism-based; settings: in vivo, 0.5 h, dose 0.1-0.5 mg/kg
[13] = Toxicity in Swiss Webster mouse assessed as effect on average speed at 0.1 to 0.5 mg/kg,sc measured after 30 mins; assay type: organism-based; settings: in vivo, 0.5 h, dose 0.1-0.5 mg/kg
[14] = Abuse liability in male Sprague-Dawley rat assessed as reduction in reinforcement at 0.32 to 10 microg/kg administered per infusion; assay type: toxicity; settings: in vivo, iv, dose 0.32-10 µg/kg
[15] = Drug uptake in Swiss Webster mouse plasma at 0.1 mg/kg, sc measured after 5 mins by LC-MS/MS analysis; assay type: ADME, organism-based; settings: in vivo
[16] = test system: Mus musculus; assay: Antinociception activity in male Swiss Webster mouse model assessed as effect on tail withdrawal latency at 0.1 mg/kg, sc pre incubated with naltrindole for 30 mins followed by compound addition and measured after 20 mins by warm water tail immersion assay; assay type: functional, organism-based
[17] = test system: Mus musculus; assay: Antinociception activity in male Swiss Webster mouse model assessed as effect on tail withdrawal latency at 0.1 mg/kg, sc pre incubated with nor-BNI for 24 hrs followed by compound addition and measured after 20 mins by warm water tail immersion assay; assay type: functional, organism-based
[18] = test system: Mus musculus; assay: Antinociception activity in male Swiss Webster mouse model assessed as effect on tail withdrawal latency at 0.1 mg/kg, sc pre incubated with naltrindole/nor-BNI for 24 hrs followed by compound addition and measured after 20 mins by warm water tail immersion assay; assay type: functional, organism-based
[19] = in vivo; settings: Swiss Webster, mouse, blood and plasma, sc, 0.1 mg/kg
Description: Ratio of drug level in Swiss Webster mouse blood to plasma at 0.1 mg/kg, sc measured after 30 mins by LC-MS/MS analysis

[20] = in vivo; settings: Swiss Webster, mouse, blood and plasma, sc, 0.1 mg/kg; remark: listed apart in the source
Description: Ratio of drug level in Swiss Webster mouse blood to plasma at 0.1 mg/kg, sc measured after 60 mins by LC-MS/MS analysis

[21] = target: T1, Delta-type opioid receptor; assay: Binding affinity to DOR (unknown origin) assessed as dissociation constant
[22] = test system: Mus musculus; assay: Antinociception activity in male Swiss Webster mouse model assessed as effective dose administered as sc dose measured after 20 mins by warm-water tail immersion assay; assay type: functional
[23] = test system: Mus musculus; assay: Antinociception activity in male Swiss Webster mouse model assessed as increase in maximum possible effect at 0.1 mg/kg, sc measured after 30 to 60 mins post injection by warm-water tail immersion assay; assay type: functional, organism-based; settings: time 30-60 min
[24] = test system: Mus musculus; assay: Antinociception activity in male Swiss Webster mouse model assessed as increase in maximum possible effect at 0.1 mg/kg, sc measured after 4 to 9 hrs post injection by warm-water tail immersion assay; assay type: functional, organism-based; settings: time 4-9 hrs
[25] = Toxicity in Swiss Webster mouse assessed as reduction in locomotion activity administered as sc dose measured for 30 mins; assay type: organism-based; settings: in vivo, 0.5 h, dose 0.1-0.5 mg/kg
[26] = Abuse liability in male Sprague-Dawley rat assessed as reduction in reinforcement at 0.1 to 10 microg/kg administered per infusion; assay type: toxicity; settings: in vivo, iv, dose 0.1-10 µg/kg
[27] = target: T1, Delta-type opioid receptor

T1 sequence (P41143 whole entry): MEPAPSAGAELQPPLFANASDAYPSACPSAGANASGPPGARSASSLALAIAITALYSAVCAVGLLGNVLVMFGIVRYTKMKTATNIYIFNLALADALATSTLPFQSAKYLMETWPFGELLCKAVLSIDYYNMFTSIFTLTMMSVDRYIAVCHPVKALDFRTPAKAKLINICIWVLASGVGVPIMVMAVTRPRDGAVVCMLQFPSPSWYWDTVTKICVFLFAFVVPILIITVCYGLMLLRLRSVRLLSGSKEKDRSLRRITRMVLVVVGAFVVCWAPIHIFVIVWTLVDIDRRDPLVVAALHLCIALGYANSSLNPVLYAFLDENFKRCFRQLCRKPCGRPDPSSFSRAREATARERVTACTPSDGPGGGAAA
Chain of Mu-type opioid receptor (P42866 whole entry): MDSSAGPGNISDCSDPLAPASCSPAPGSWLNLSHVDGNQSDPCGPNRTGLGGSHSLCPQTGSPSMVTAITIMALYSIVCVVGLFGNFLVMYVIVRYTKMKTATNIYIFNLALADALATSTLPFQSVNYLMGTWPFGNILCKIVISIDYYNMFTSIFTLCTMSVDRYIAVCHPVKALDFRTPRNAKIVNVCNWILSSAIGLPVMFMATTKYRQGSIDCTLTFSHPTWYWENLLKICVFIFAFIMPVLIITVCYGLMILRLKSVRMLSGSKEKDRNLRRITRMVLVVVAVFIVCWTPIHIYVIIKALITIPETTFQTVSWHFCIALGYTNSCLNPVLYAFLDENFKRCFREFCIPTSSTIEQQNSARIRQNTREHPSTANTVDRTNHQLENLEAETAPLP
Chain of Kappa-type opioid receptor (P33534 whole entry): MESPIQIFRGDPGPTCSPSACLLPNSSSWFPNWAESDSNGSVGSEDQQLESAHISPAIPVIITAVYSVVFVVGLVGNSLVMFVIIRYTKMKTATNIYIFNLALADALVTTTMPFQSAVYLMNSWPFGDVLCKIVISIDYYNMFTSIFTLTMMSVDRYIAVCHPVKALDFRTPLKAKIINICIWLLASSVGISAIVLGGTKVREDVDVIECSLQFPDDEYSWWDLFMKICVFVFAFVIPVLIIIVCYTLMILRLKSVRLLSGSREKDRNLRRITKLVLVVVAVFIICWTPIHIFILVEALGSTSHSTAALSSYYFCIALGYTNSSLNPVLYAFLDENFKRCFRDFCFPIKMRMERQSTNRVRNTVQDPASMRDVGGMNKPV

Structure (SMILES)	Kd [1]	Kd [2]	Kd [3]	MPE [4]	also measured
Cl.O=C(CCc1ccoc1)N[C@@H]1CC[C@@]2(O)[C@H]3Cc4cccc5c4[C@@]2(CCN3CC2CC2)[C@H]1O5	8.37 nM	17.3 nM	749 nM	40%	
CN(C(=O)/C=C/c1ccco1)[C@@H]1CC[C@@]2(O)[C@H]3Cc4cccc5c4[C@@]2(CCN3CC2CC2)[C@H]1O5.Cl	4.11 nM	215 nM	2260 nM	40%	Emax [5]: 82.1%
CN(C(=O)CCc1ccco1)[C@@H]1CC[C@@]2(O)[C@H]3Cc4ccc(O)c5c4[C@@]2(CCN3CC2CC2)[C@H]1O5.Cl	0.32 nM	0.66 nM	7.32 nM	100%	
Cl.O=C(CCc1ccco1)N[C@H]1CC[C@@]2(O)[C@H]3Cc4ccc(O)c5c4[C@@]2(CCN3CC2CC2)[C@H]1O5		0.72 nM		<=40%	
CN(C(=O)CCc1ccco1)[C@H]1CC[C@@]2(O)[C@H]3Cc4cccc5c4[C@@]2(CCN3CC2CC2)[C@H]1O5.Cl	1 nM	14.1 nM	46.8 nM	40%	
CN(C(=O)/C=C/c1ccco1)[C@H]1CC[C@@]2(O)[C@H]3Cc4cccc5c4[C@@]2(CCN3CC2CC2)[C@H]1O5.Cl	0.62 nM	16.8 nM	68.4 nM	80%	Emax [5]: 102%
Cl.O=C(/C=C/c1ccco1)N[C@H]1CC[C@@]2(O)[C@H]3Cc4ccc(O)c5c4[C@@]2(CCN3CC2CC2)[C@H]1O5	1.08 nM	0.53 nM	8.75 nM	100%	
CN1CC[C@]23c4c5ccc(O)c4O[C@H]2[C@@H](O)C=C[C@H]3[C@H]1C5					Activity [6]: Active; Activity [7]: inactive
Cl.O=C(/C=C/c1ccco1)N[C@@H]1CC[C@@]2(O)[C@H]3Cc4cccc5c4[C@@]2(CCN3CC2CC2)[C@H]1O5	7.03 nM	42.4 nM	551 nM	<=40%	Emax [5]: 81%; MPE [8]: 100%
Cl.O=C(CCc1ccco1)N[C@H]1CC[C@@]2(O)[C@H]3Cc4cccc5c4[C@@]2(CCN3CC2CC2)[C@H]1O5	73.8 nM	53.1 nM	90.2 nM	<=40%	MPE [8]: 80%
Cl.O=C(CCc1ccoc1)N[C@H]1CC[C@@]2(O)[C@H]3Cc4cccc5c4[C@@]2(CCN3CC2CC2)[C@H]1O5	161 nM	54.5 nM	154 nM	<=40%	Ratio [9]: 0; Emax [5]: 93.1%; MPE [8]: 80%
CN(C(=O)CCc1ccoc1)[C@H]1CC[C@@]2(O)[C@H]3Cc4cccc5c4[C@@]2(CCN3CC2CC2)[C@H]1O5.Cl	0.48 nM	7.74 nM	48.6 nM	80%	
Cl.O=C(CCc1ccoc1)N[C@@H]1CC[C@@]2(O)[C@H]3Cc4ccc(O)c5c4[C@@]2(CCN3CC2CC2)[C@H]1O5		0.21 nM		<=40%	
CN(C(=O)CCc1ccoc1)[C@H]1CC[C@@]2(O)[C@H]3Cc4ccc(O)c5c4[C@@]2(CCN3CC2CC2)[C@H]1O5.Cl	0.13 nM	0.18 nM	0.59 nM	40%	
CN(C(=O)/C=C/c1ccco1)[C@H]1CC[C@@]2(O)[C@H]3Cc4ccc(O)c5c4[C@@]2(CCN3CC2CC2)[C@H]1O5.Cl	0.14 nM	0.2 nM	0.93 nM	80%	Emax [5]: 83.2%; Activity [10]: Active; Activity [11]: Toxic; Activity [12]: Toxic; Activity [13]: Toxic; Activity [14]: Non-Toxic; Drug uptake [15]: Active; Activity [16]: inactive; Activity [17]: inactive; Activity [18]: inactive; blood plasma ratio at 0.5 h [19]: 0.633; blood plasma ratio at 1 h [20]: 0.938
CN(C(=O)CCc1ccco1)[C@@H]1CC[C@@]2(O)[C@H]3Cc4cccc5c4[C@@]2(CCN3CC2CC2)[C@H]1O5.Cl	50.4 nM	93.6 nM	532 nM	40%	
CN(C(=O)CCc1ccco1)[C@H]1CC[C@@]2(O)[C@H]3Cc4ccc(O)c5c4[C@@]2(CCN3CC2CC2)[C@H]1O5.Cl	0.12 nM	0.15 nM	0.37 nM	100%	
CN(C(=O)CCc1ccoc1)[C@@H]1CC[C@@]2(O)[C@H]3Cc4ccc(O)c5c4[C@@]2(CCN3CC2CC2)[C@H]1O5.Cl	0.28 nM	0.53 nM	8.42 nM	100%	
Cl.O=C(/C=C/c1ccco1)N[C@H]1CC[C@@]2(O)[C@H]3Cc4cccc5c4[C@@]2(CCN3CC2CC2)[C@H]1O5	249 nM	107 nM	456 nM	<=40%	Ratio [9]: 0; MPE [8]: 100%
Cl.O=C(/C=C/c1ccco1)N[C@@H]1CC[C@@]2(O)[C@H]3Cc4ccc(O)c5c4[C@@]2(CCN3CC2CC2)[C@H]1O5	0.17 nM	0.3 nM	12.8 nM	80%	
Cl.O=C(CCc1ccoc1)N[C@H]1CC[C@@]2(O)[C@H]3Cc4ccc(O)c5c4[C@@]2(CCN3CC2CC2)[C@H]1O5		0.44 nM		<=40%	MPE [8]: 100%
CN(C(=O)/C=C/c1ccoc1)[C@@H]1CC[C@@]2(O)[C@H]3Cc4ccc(O)c5c4[C@@]2(CCN3CC2CC2)[C@H]1O5.Cl [NALFURAFINE HYDROCHLORIDE]				80%	Kd [21]: 116 nM; ED50 [22]: 0.046 mg/kg; Activity [23]: Active; Activity [24]: inactive; Activity [25]: Dose-Dependent Effect; Activity [12]: Toxic; Activity [13]: Toxic; Activity [26]: Non-Toxic; Activity [16]: inactive; Activity [17]: inactive; Activity [18]: inactive; EC50 [27]: 141 nM
CN(C(=O)/C=C/c1ccoc1)[C@H]1CC[C@@]2(O)[C@H]3Cc4ccc(O)c5c4[C@@]2(CCN3CC2CC2)[C@H]1O5.Cl				100%	Kd [21]: 0.64 nM; ED50 [22]: 0.037 mg/kg; EC50 [27]: 2.68 nM
Cl.O=C(CCc1ccco1)N[C@@H]1CC[C@@]2(O)[C@H]3Cc4ccc(O)c5c4[C@@]2(CCN3CC2CC2)[C@H]1O5	0.61 nM	0.28 nM	33 nM	<=40%	MPE [8]: 40%
CN(C(=O)CCc1ccoc1)[C@@H]1CC[C@@]2(O)[C@H]3Cc4cccc5c4[C@@]2(CCN3CC2CC2)[C@H]1O5.Cl	34.5 nM	43.8 nM	891 nM	<=40%	MPE [8]: 100%
C=CCN1CC[C@]23c4c5ccc(O)c4O[C@H]2C(=O)CC[C@@]3(O)[C@H]1C5 [NALOXONE]					MPE [8]: <=40%
Cl.O=C(CCc1ccco1)N[C@@H]1CC[C@@]2(O)[C@H]3Cc4cccc5c4[C@@]2(CCN3CC2CC2)[C@H]1O5	23.6 nM	27.5 nM	800 nM	40%	
